This is an account of results in patent US8791123B2, “Substituted pyrazolo[1,5-a]pyrimidine compounds as Trk kinase inhibitors” (Array Biopharma, Inc., priority 2009, dated 2014).

Read-outs that look alike come from different tables or passages of the source.

The target in assay [1] is TrkA (histidine-tagged recombinant human TrkA, cytoplasmic domain) (Homo sapiens (Human), UniProt P04629). Put plainly: TrkA ELISA Assay. Format: biochemical. The settings on record: Table 1; ELISA, 500 μM ATP; read-out: TrkA Enzyme IC50. The gist of the method: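 ELISA read-out: a peroxidase-linked anti-phosphotyrosine antibody (PY20, 0.2 μg/mL) with TMB substrate, absorbance at 450 nm after acid stop. The plate-bound substrate was poly(Glu,Ala,Tyr; 6:3:1) at 0.025 mg/mL, phosphorylated by the recombinant His-tagged human TrkA cytoplasmic domain in the presence of inhibitors.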
In general terms: An ELISA detects its analyte on a solid surface through an enzyme-linked reagent.

A further assay concerns the target Human Jak2 kinase domain (Homo sapiens (Human), UniProt O60674). Put plainly: Jak2 Inhibition Assay (Omnia kinase assay). It is filed as biochemical. Conditions: read-out: Jak2 Enzyme IC50.
[2] abbreviates: Table 1, 500 μM ATP, >1000 nM when >50% inhibition not observed at 1000 nM.

Chain of TrkA (histidine-tagged recombinant human TrkA, cytoplasmic domain) (P04629 440-796): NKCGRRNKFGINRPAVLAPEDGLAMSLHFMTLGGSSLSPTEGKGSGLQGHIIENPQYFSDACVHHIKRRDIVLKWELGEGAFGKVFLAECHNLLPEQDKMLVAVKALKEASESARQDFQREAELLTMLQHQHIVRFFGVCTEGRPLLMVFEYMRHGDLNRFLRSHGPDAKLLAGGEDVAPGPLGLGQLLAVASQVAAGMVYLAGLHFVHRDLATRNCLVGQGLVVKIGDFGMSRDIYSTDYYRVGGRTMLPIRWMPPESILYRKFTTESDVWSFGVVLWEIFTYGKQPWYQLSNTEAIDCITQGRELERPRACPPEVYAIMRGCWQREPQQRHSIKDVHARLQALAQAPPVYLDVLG
Chain of Human Jak2 kinase domain (O60674 808-1132): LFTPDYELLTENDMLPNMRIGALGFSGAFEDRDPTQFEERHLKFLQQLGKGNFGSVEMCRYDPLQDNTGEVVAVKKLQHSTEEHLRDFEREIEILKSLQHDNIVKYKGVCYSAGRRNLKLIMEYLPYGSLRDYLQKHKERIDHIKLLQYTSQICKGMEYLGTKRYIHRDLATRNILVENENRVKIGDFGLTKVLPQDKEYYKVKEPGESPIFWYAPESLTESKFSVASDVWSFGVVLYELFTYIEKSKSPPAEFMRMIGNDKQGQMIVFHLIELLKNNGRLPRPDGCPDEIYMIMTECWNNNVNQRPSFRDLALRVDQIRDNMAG

Broadly, the IC50 is the point on the concentration scale where inhibition reaches its midpoint. With `O=C(NCC(F)CCl)c1cnn2ccc(N3CCC[C@@H]3c3cncc(F)c3)nc12` (stereo partly drawn) [Example 97, N-(3-chloro-2-fluoropropyl)-5-((R)-2-(5-fluoropyridin-3-yl)pyrrolidin-1-yl)pyrazolo[1,5-a]pyrimidine-3-carboxamide], the IC50 in assay [1] was 0.0062 µM; at Human Jak2 kinase domain (setting [2]), above 1 µM.

`O=C(N[C@H]1CCC[C@@H]1O)c1cnn2ccc(N3CCC[C@@H]3c3cncc(F)c3)nc12` [Example 103, 5-((R)-2-(5-fluoropyridin-3-yl)pyrrolidin-1-yl)-N-((1S,2S)-2-hydroxycyclopentyl)pyrazolo[1,5-a]pyrimidine-3-carboxamide]: the IC50 in assay [1] is 0.0878 µM; at Human Jak2 kinase domain (setting [2]), above 1 µM.

`O=C(NC1CCC1)c1cnn2ccc(N3CCC[C@@H]3c3cc(F)ccc3F)nc12` [Example 14, (R)—N-cyclobutyl-5-(2-(2,5-difluorophenyl)pyrrolidin-1-yl)pyrazolo[1,5-a]pyrimidine-3-carboxamide]: the IC50 in assay [1] came out at 0.00055 µM; on Human Jak2 kinase domain (setting [2]), 0.47 µM.

Take `COc1ncc(F)cc1[C@H]1CCCN1c1ccn2ncc(C(=O)N[C@H]3CC[C@H](O)C3)c2n1` [Example 154, 5-((R)-2-(5-fluoro-2-methoxypyridin-3-yl)pyrrolidin-1-yl)-N-((1S,3S)-3-hydroxycyclopentyl)pyrazolo[1,5-a]pyrimidine-3-carboxamide]: the results for the IC50 (in assay [1]; at Human Jak2 kinase domain (setting [2])) were 0.0013 µM and 0.524 µM, respectively.

Turning to `O=C(NC1(CO)CC1)c1cnn2ccc(N3CCC[C@@H]3c3cc(F)ccc3F)nc12` [Example 16, (R)-5-(2-(2,5-difluorophenyl)pyrrolidin-1-yl)-N-(1-(hydroxymethyl)cyclopropyl)pyrazolo[1,5-a]pyrimidine-3-carboxamide], the half-inhibitory concentration (IC50) in assay [1] is 0.0009 µM; on Human Jak2 kinase domain (setting [2]) it was above 1 µM.

Take `NC(=O)c1cnn2ccc(N3CCC[C@@H]3c3cc(F)ccc3C(F)(F)F)nc12` [Example 64, (R)-5-(2-(5-fluoro-2-(trifluoromethyl)phenyl)pyrrolidin-1-yl)pyrazolo[1,5-a]pyrimidine-3-carboxamide]: the values for the IC50 (in assay [1]; on Human Jak2 kinase domain (setting [2])) were 0.0016 µM and 0.575 µM, respectively.

For `CC1(NC(=O)c2cnn3ccc(N4CCC[C@@H]4c4cncc(F)c4)nc23)CCC1` [Example 102, (R)-5-(2-(5-fluoropyridin-3-yl)pyrrolidin-1-yl)-N-(1-methylcyclobutyl)pyrazolo[1,5-a]pyrimidine-3-carboxamide], the IC50 in assay [1] was 0.0052 µM; at Human Jak2 kinase domain (setting [2]), above 1 µM.

Take `NCCCNC(=O)c1cnn2ccc(N3CCC[C@@H]3c3cc(F)c[nH]c3=O)nc12` [Example 142, (R)—N-(3-aminopropyl)-5-(2-(5-fluoro-2-oxo-1,2-dihydropyridin-3-yl)pyrrolidin-1-yl)pyrazolo[1,5-a]pyrimidine-3-carboxamide]: the IC50 in assay [1] is 0.0127 µM; at Human Jak2 kinase domain (setting [2]), above 1 µM.

With `C[C@H](O)[C@H](CO)NC(=O)c1cnn2ccc(N3CCC[C@@H]3c3cc(F)ccc3F)nc12` [Example 175, 5-((R)-2-(2,5-difluorophenyl)pyrrolidin-1-yl)-N-((2S,3S)-1,3-dihydroxybutan-2-yl)pyrazolo[1,5-a]pyrimidine-3-carboxamide], the IC50 was 0.0122 µM in assay [1] and above 1 µM on Human Jak2 kinase domain (setting [2]).

Turning to `NC(=O)c1cnn2ccc(N3CCC[C@@H]3c3cc(F)cc(OCC(O)CO)c3)nc12` (stereo partly drawn) [Example 209, 5-((2R)-2-(3-(2,3-dihydroxypropoxy)-5-fluorophenyl)pyrrolidin-1-yl)pyrazolo[1,5-a]pyrimidine-3-carboxamide], the IC50 in assay [1] is 0.0171 µM; on Human Jak2 kinase domain (setting [2]), above 1 µM.

With `Cc1ncc(F)cc1[C@H]1CCCN1c1ccn2ncc(C(=O)NC(C)C)c2n1` [Example 184, (R)-5-(2-(5-fluoro-2-methylpyridin-3-yl)pyrrolidin-1-yl)-N-isopropylpyrazolo[1,5-a]pyrimidine-3-carboxamide], the figures for the 50% inhibitory concentration (IC50) (in assay [1]; at Human Jak2 kinase domain (setting [2])) were 0.0074 µM and above 1 µM, respectively.

Turning to `O=C(N[C@@H]1CCC[C@@H]1O)c1cnn2ccc(N3CCC[C@@H]3c3cncc(F)c3)nc12` [Example 135, 5-((R)-2-(5-fluoropyridin-3-yl)pyrrolidin-1-yl)-N-((1R,2S)-2-hydroxycyclopentyl)pyrazolo[1,5-a]pyrimidine-3-carboxamide], the values for the IC50 (in assay [1]; on Human Jak2 kinase domain (setting [2])) were 0.142 µM and above 1 µM, respectively.

Turning to `CONC(=O)c1cnn2ccc(N3CCC[C@@H]3c3cccc(F)c3)nc12` [Example 75], the IC50 is 0.00695 µM in assay [1] and above 1 µM on Human Jak2 kinase domain (setting [2]).

For the molecule `O=C(NCC(F)(F)F)c1cnn2ccc(N3CCC[C@@H]3c3cncc(F)c3)nc12` [Example 131, (R)-5-(2-(5-fluoropyridin-3-yl)pyrrolidin-1-yl)-N-(2,2,2-trifluoroethyl)pyrazolo[1,5-a]pyrimidine-3-carboxamide], the IC50 in assay [1] is 0.005 µM; on Human Jak2 kinase domain (setting [2]), above 1 µM.

Regarding `NS(=O)(=O)CCNC(=O)c1cnn2ccc(N3CCC[C@@H]3c3cc(F)ccc3F)nc12` [Example 47, (R)-5-(2-(2,5-difluorophenyl)pyrrolidin-1-yl)-N-(2-sulfamoylethyl)pyrazolo[1,5-a]pyrimidine-3-carboxamide], the IC50 is 0.0015 µM in assay [1] and above 1 µM at Human Jak2 kinase domain.

`O=C(N[C@@H]1C2CC[C@@H](C2)[C@@H]1CO)c1cnn2ccc(N3CCC[C@@H]3c3cncc(F)c3)nc12` [Example 138, 5-((R)-2-(5-fluoropyridin-3-yl)pyrrolidin-1-yl)-N-((2R,3S,4S)-3-(hydroxymethyl)bicyclo[2.2.1]heptan-2-yl)pyrazolo[1,5-a]pyrimidine-3-carboxamide]: the IC50 in assay [1] was 0.0348 µM; on Human Jak2 kinase domain (setting [2]), above 1 µM.

With `CC(C)NC(=O)c1cnn2ccc(N3C[C@@H](O)C[C@@H]3c3cccc(F)c3)nc12` [Example 217, 5-((2R,4S)-2-(3-fluorophenyl)-4-hydroxypyrrolidin-1-yl)-N-isopropylpyrazolo[1,5-a]pyrimidine-3-carboxamide], the IC50 in assay [1] was 0.0058 µM; on Human Jak2 kinase domain (setting [2]), 0.551 µM.

With `O=C(NC1(CO)CC1)c1cnn2ccc(N3CCC[C@@H]3c3cncc(F)c3)nc12` [Example 107, (R)-5-(2-(5-fluoropyridin-3-yl)pyrrolidin-1-yl)-N-(1-(hydroxymethyl)cyclopropyl)pyrazolo[1,5-a]pyrimidine-3-carboxamide], the half-maximal inhibitory concentration (IC50) in assay [1] is 0.0164 µM; at Human Jak2 kinase domain (setting [2]) it was above 1 µM.

Consider `O=C(NC1CCC1)c1cnn2ccc(N3CCC[C@@H]3c3cncc(F)c3)nc12` [Example 101, (R)-N-cyclobutyl-5-(2-(5-fluoropyridin-3-yl)pyrrolidin-1-yl)pyrazolo[1,5-a]pyrimidine-3-carboxamide], for which the IC50 was 0.0117 µM in assay [1] and above 1 µM at Human Jak2 kinase domain (setting [2]).

As to `Cn1cc(F)cc([C@H]2CCCN2c2ccn3ncc(C(=O)NC(C)(C)C)c3n2)c1=O` [Example 226, (R)—N-tert-butyl-5-(2-(5-fluoro-1-methyl-2-oxo-1,2-dihydropyridin-3-yl)pyrrolidin-1-yl)pyrazolo[1,5-a]pyrimidine-3-carboxamide], the IC50 in assay [1] is 0.0105 µM; on Human Jak2 kinase domain (setting [2]), above 1 µM.

Regarding `CNC(=O)c1cnn2ccc(N3C[C@@H](O)C[C@@H]3c3cccc(F)c3)nc12` [Example 218, 5-((2R,4S)-2-(3-fluorophenyl)-4-hydroxypyrrolidin-1-yl)-N-methylpyrazolo[1,5-a]pyrimidine-3-carboxamide], the IC50 in assay [1] was 0.0339 µM; at Human Jak2 kinase domain (setting [2]), above 1 µM.

For the molecule `CC(C)(CO)NC(=O)c1cnn2ccc(N3CCC[C@@H]3c3cncc(F)c3)nc12` [Example 132, (R)-5-(2-(5-fluoropyridin-3-yl)pyrrolidin-1-yl)-N-(1-hydroxy-2-methylpropan-2-yl)pyrazolo[1,5-a]pyrimidine-3-carboxamide], the IC50 in assay [1] was 0.0444 µM; at Human Jak2 kinase domain (setting [2]), above 1 µM.

Turning to `O=C(NC1CC1)c1cnn2ccc(N3CCC[C@@H]3c3cc(F)ccc3OCCN3CCOCC3)nc12` [Example 87, (R)—N-cyclopropyl-5-(2-(5-fluoro-2-(2-morpholinoethoxy)phenyl)pyrrolidin-1-yl)pyrazolo[1,5-a]pyrimidine-3-carboxamide], the IC50 is 0.0161 µM in assay [1] and above 1 µM on Human Jak2 kinase domain (setting [2]).

Consider `CNC(=O)c1cnn2ccc(N3CCC[C@@H]3c3cc(F)cnc3OC)nc12` [Example 153, (R)-5-(2-(5-fluoro-2-methoxypyridin-3-yl)pyrrolidin-1-yl)-N-methylpyrazolo[1,5-a]pyrimidine-3-carboxamide], for which the results for the IC50 (in assay [1]; at Human Jak2 kinase domain (setting [2])) were 0.0021 µM and above 1 µM, respectively.

`O=C(NCCN1CCNC1=O)c1cnn2ccc(N3CCC[C@@H]3c3cc(F)ccc3F)nc12` [Example 24, (R)-5-(2-(2,5-difluorophenyl)pyrrolidin-1-yl)-N-(2-(2-oxoimidazolidin-1-yl)ethyl) pyrazole[1,5-a]pyrimidine-3-carboxamide]: the figures for the IC50 (in assay [1]; at Human Jak2 kinase domain (setting [2])) were 0.0036 µM and above 1 µM, respectively.

For the molecule `Cc1ncc(F)cc1[C@H]1CCCN1c1ccn2ncc(C(=O)NC[C@@H](C)O)c2n1` [Example 189, (R)-5-(2-(5-fluoro-2-methylpyridin-3-yl)pyrrolidin-1-yl)-N-((R)-2-hydroxypropyl)pyrazolo[1,5-a]pyrimidine-3-carboxamide], the IC50 is 0.0764 µM in assay [1] and above 1 µM on Human Jak2 kinase domain (setting [2]).

Consider `Cc1ncc(F)cc1[C@H]1CCCN1c1ccn2ncc(C(=O)NC(C)(C)C)c2n1` [Example 183, (R)-N-tert-butyl-5-(2-(5-fluoro-2-methylpyridin-3-yl)pyrrolidin-1-yl)pyrazolo[1,5-a]pyrimidine-3-carboxamide], for which the values for the IC50 (in assay [1]; on Human Jak2 kinase domain (setting [2])) were 0.0069 µM and above 1 µM, respectively.

As for `CC(C)(O)CNC(=O)c1cnn2ccc(N3CCC[C@@H]3c3cc(F)ccc3F)nc12` [Example 17, (R)-5-(2-(2,5-difluorophenyl)pyrrolidin-1-yl)-N-(2-hydroxy-2-methylpropyl)pyrazolo[1,5-a]pyrimidine-3-carboxamide], the IC50 was 0.00215 µM in assay [1] and above 1 µM at Human Jak2 kinase domain (setting [2]).
